# According to patent US20230109801A1 (Blue Oak Pharmaceuticals, Inc., priority 2020, published 2023):
# Counter-ions that a name gives are not always drawn.
# System: mice
# Assay: SmartCube in vivo neuropharmacological behavioral assay
# Conditions: for minimal effective dose: Mus musculus, ip, dose having 50% or more total activity in SmartCube, i.p., read-out: MED (minimal effective dose); for AD: antidepressant, percent probability / AG: analgesic, percent probability / AP: antipsychotic, percent probability / AX: anxiolytic, percent probability / CE: cognitive enhancer, percent probability / HA: hallucinogenic, percent probability / MS: mood stabilizer, percent probability / PS, percent probability / SD: sedative hypnotic, percent probability / SE: side effects, percent probability / UN: uncharacterized CNS activity, percent probability / XG: anxiogenic, percent probability: SmartCube, i.p. 15 min before test, at the MED
# Method: The compounds were evaluated for their CNS related properties (e.g., the treatment, prevention or diagnosis of CNS or CNS-related disorders and/or amelioration of symptoms) using neuropharmacological screening methods described in S. L. Roberts et al., Front. Neurosci. 2011, 5:103 (hereinafter referred to as “Roberts,” the contents of which are incorporated herein by reference in their entirety).
# According to Roberts, intact systems are useful in detecting improvement in disease-relevant endpoints, because psychiatric diseases generally result from disorders of cell-cell communication or circuitry. The endpoints are typically behavioral in nature, often requiring human observation and interpretation. In order to test multiple compounds for behavioral effects relevant to neurological and psychiatric diseases and disorders, PsychoGenics, Inc. (Paramus, N.J. “PGI”) developed SmartCube®, an automated system in which behaviors of compound-treated mice are captured by digital video and analyzed with computer algorithms to facilitate testing of multiple compounds for behavioral effects relevant to psychiatric disease. (D. Brunner et al., Drug Discov. Today 2002, 7:S107-S112; Alexandrov et al., Eur. J. Pharmacol. 2015, 753:127-134; the contents of each of which are incorporated herein by reference in their entirety).
# The SmartCube® system is described in Example 2.2 of U.S. Pat. No. 9,758,529 and Example 289 of WIPO Publication No. WO2018/023070, the contents of each of which are incorporated herein by reference in their entirety.
# According to the present disclosure, compounds identified may be evaluated using the SmartCube® system. The results of such analysis correlate certain patterns or combinations of behaviors to CNS effects along a percent probability scale of 0-100 where zero (O) reflects the limit of quantitation (LOQ).
# The compounds of the present disclosure were evaluated for their CNS related properties (e.g., the treatment, prevention or diagnosis of CNS or CNS-related disorders and/or amelioration of symptoms) using neuropharmacological screening methods described in S. L. Roberts et al., Front. Neurosci. 2011, 5:103 (hereinafter referred to as “Roberts,” the contents of which are incorporated herein by reference in their entirety).
# The SmartCube® system described herein was utilized to compare the behavioral signature of a test compound to a database of behavioral signatures obtained using a large set of diverse reference compounds (including but not limited to antipsychotics, anxiolytics, antidepressants and bipolar disorder medicine), thereby predicting the neuropharmacological effects of a test compound by similarity to major classes of compounds. It produces an activity signature indicating the probability that the activity of the test compound at the administered dose matches a given class of neuropharmacological agents. The test compound is simultaneously compared against multiple classes of agents; thus, a separate probability is generated for each behavioral effect measured (such as but not limited to anxiolytic activity and analgesic activity).
# The compounds of the present disclosure were dissolved in a mixture of Pharmasolve™ (N-methyl-2-pyrrolidone (NMP)) and were injected i.p. 15 min. before the behavioral test. For each compound, injections were administered at different dose levels (e.g., 0.3, 1, 3, 10 and 30 mg per kg (mpk)). A compound's minimal effective dose (MED; see Table 3) is a measure of the compound's potency. The MED was defined as the dose (in mpk) having 50% or more total activity in SmartCube®. For each behavioral effect measured, results at the MED are presented. CNS activities of the compounds were recorded (see Table 2). In Table 1, a key to the percent probabilities (probability×100) for each behavioral effect (“X”) are defined provided, where LOQ is the limit of quantification.
SMILES,minimal effective dose [mg/kg],"AD: antidepressant, percent probability","AG: analgesic, percent probability","AP: antipsychotic, percent probability","AX: anxiolytic, percent probability","CE: cognitive enhancer, percent probability","HA: hallucinogenic, percent probability","MS: mood stabilizer, percent probability","PS, percent probability","SD: sedative hypnotic, percent probability","SE: side effects, percent probability","UN: uncharacterized CNS activity, percent probability","XG: anxiogenic, percent probability"
"CC[C@@H](C)N1C2CCC1c1ccccc12 [Compound 33, 11-[(2R)-Butan-2-yl]-11-azatricyclo[6.2.1.0^2,7]undeca-2,4,6-triene hydrochloride]",1 to 10,+ (LOQ ≤ X < 5%),+ (LOQ ≤ X < 5%),+ (LOQ ≤ X < 5%),++ (5% ≤ X < 25%),+ (LOQ ≤ X < 5%),+ (LOQ ≤ X < 5%),+ (LOQ ≤ X < 5%),++ (5% ≤ X < 25%),+ (LOQ ≤ X < 5%),+ (LOQ ≤ X < 5%),++++ (50% ≤ X <1 00%),+ (LOQ ≤ X < 5%)
"Clc1cccc2c1C1C=CC2N1 (stereo not shown) [Compound 11, 3-Chloro-11-azatricyclo[6.2.1.0^2,7]undeca-2,4,6,9-tetraene hydrochloride]",> 30,+ (LOQ ≤ X < 5%),+ (LOQ ≤ X < 5%),+ (LOQ ≤ X < 5%),++ (5% ≤ X < 25%),++ (5% ≤ X < 25%),+ (LOQ ≤ X < 5%),+ (LOQ ≤ X < 5%),+ (LOQ ≤ X < 5%),+ (LOQ ≤ X < 5%),+ (LOQ ≤ X < 5%),++ (5% ≤ X < 25%),+ (LOQ ≤ X < 5%)
"CC1=CC2c3ccccc3C1N2C(C)C (stereo not shown) [Compound 62, 9-Methyl-11-(propan-2-yl)-11-azatricyclo[6.2.1.0^2,7]undeca-2,4,6,9-tetraene hydrochloride]",1 to 10,++ (5% ≤ X < 25%),++ (5% ≤ X < 25%),+ (LOQ ≤ X < 5%),++ (5% ≤ X < 25%),+ (LOQ ≤ X < 5%),+ (LOQ ≤ X < 5%),+ (LOQ ≤ X < 5%),+ (LOQ ≤ X < 5%),+ (LOQ ≤ X < 5%),+ (LOQ ≤ X < 5%),++ (5% ≤ X < 25%),+ (LOQ ≤ X < 5%)
"CC/C=C/CN1C2CCC1c1ccccc12 [Compound 10, 11-[(2E)-Pent-2-en-1-yl]-11-azatricyclo[6.2.1.0^2,7]undeca-2,4,6-triene hydrochloride]",> 30,+ (LOQ ≤ X < 5%),+ (LOQ ≤ X < 5%),+ (LOQ ≤ X < 5%),++ (5% ≤ X < 25%),+ (LOQ ≤ X < 5%),+ (LOQ ≤ X < 5%),+ (LOQ ≤ X < 5%),+ (LOQ ≤ X < 5%),+ (LOQ ≤ X < 5%),+ (LOQ ≤ X < 5%),+ (LOQ ≤ X < 5%),+ (LOQ ≤ X < 5%)
"COCC(C)N1C2CCC1c1ccccc12 (stereo not shown) [Compound 46, 11-(1-Methoxypropan-2-yl)-11-azatricyclo[6.2.1.0^2,7]undeca-2,4,6-triene hydrochloride]",> 30,+ (LOQ ≤ X < 5%),++ (5% ≤ X < 25%),+ (LOQ ≤ X < 5%),+ (LOQ ≤ X < 5%),+ (LOQ ≤ X < 5%),+ (LOQ ≤ X < 5%),+ (LOQ ≤ X < 5%),+ (LOQ ≤ X < 5%),+ (LOQ ≤ X < 5%),+ (LOQ ≤ X < 5%),+ (LOQ ≤ X < 5%),+ (LOQ ≤ X < 5%)
"c1ccc2c(c1)C1CCC2N1C1CC1 [Compound 45, 11-Cyclopropyl-11-azatricyclo[6.2.1.0^2,7]undeca-2,4,6-triene hydrochloride]",10 to 30,++ (5% ≤ X < 25%),++ (5% ≤ X < 25%),++ (5% ≤ X < 25%),++ (5% ≤ X < 25%),++ (5% ≤ X < 25%),+ (LOQ ≤ X < 5%),+ (LOQ ≤ X < 5%),+ (LOQ ≤ X < 5%),+ (LOQ ≤ X < 5%),+ (LOQ ≤ X < 5%),++ (5% ≤ X < 25%),+ (LOQ ≤ X < 5%)
"CC1=CC2NC1c1ccccc12 (stereo not shown) [Compound 61, 9-Methyl-11-azatricyclo[6.2.1.0^2,7]undeca-2,4,6,9-tetraene hydrochloride]",> 30,++ (5% ≤ X < 25%),++ (5% ≤ X < 25%),+ (LOQ ≤ X < 5%),+ (LOQ ≤ X < 5%),+ (LOQ ≤ X < 5%),+ (LOQ ≤ X < 5%),+ (LOQ ≤ X < 5%),+ (LOQ ≤ X < 5%),+ (LOQ ≤ X < 5%),+ (LOQ ≤ X < 5%),+ (LOQ ≤ X < 5%),+ (LOQ ≤ X < 5%)
